Reference: US11117900B2 (Vertex Pharmaceuticals Incorporated, priority 2012, dated 2021)

Each compound was assayed on HCT116 colorectal cancer cells (assay: Cisplatin sensitization assay (96 h MTS cell viability)). Details: Cisplatin sensitization value.
Assay type: cell-based
Method: Compounds can be screened for their ability to sensitize HCT116 colorectal cancer cells to Cisplatin using a 96 h cell viability (MTS) assay. […] Compounds and Cisplatin are then both added simultaneously to the cell media in 2-fold serial dilutions from a top final concentration of 10 μM as a full matrix of concentrations in a final cell volume of 200 μl, and the cells are then incubated at 37° C. in 5% CO2. After 96 h, 40 μl of MTS reagent (Promega G358a) is added to each well and the cells are incubated for 1 h at 37° C. in 5% CO2.
Compounds with a Cisplatin sensitization value of <0.02 μM are marked with “+++.” Compounds with a Cisplatin sensitization value >0.02 μM but <0.2 μM are marked with “++.” Compounds with a Cisplatin sensitization value >0.2 μM but <5 μM are marked with “+.”
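Note: compound concentration needed to lower the IC50 of Cisplatin alone by a set fold.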

Structure (SMILES) | Cisplatin Sensitization Assay
Nc1nn2cc(F)cnc2c1C(=O)Nc1cnccc1-c1ccc(C(=O)N2CCN(C3COC3)CC2)nc1 [I-C-52, 2-amino-6-fluoro-N-(6-(4-(oxetan-3-yl)piperazine-1-carbonyl)-[3,4′-bipyridin]-3′-yl)pyrazolo[1,5-a]pyrimidine-3-carboxamide] | ++ (Compounds with a Cisplatin sensitization value >0.02 μM but <0.2 μM are marked with “++.”)
Nc1nn2cc(F)cnc2c1C(=O)Nc1cnccc1-c1ccc(C(=O)N2CCC(N3CCCC3)CC2)nc1 [I-C-53, 2-amino-6-fluoro-N-(6-(4-(pyrrolidin-1-yl)piperidine-1-carbonyl)-[3,4′-bipyridin]-3′-yl)pyrazolo[1,5-a]pyrimidine-3-carboxamide] | +++ (Compounds with a Cisplatin sensitization value of <0.02 μM are marked with “+++.”)
Nc1nn2cc(F)cnc2c1C(=O)Nc1cnccc1-c1ccc(C(=O)N2CCC(N3CCC3)CC2)nc1 [I-C-54, 2-amino-N-(6-(4-(azetidin-1-yl)piperidine-1-carbonyl)-[3,4′-bipyridin]-3′-yl)-6-fluoropyrazolo[1,5-a]pyrimidine-3-carboxamide] | +++ (Compounds with a Cisplatin sensitization value of <0.02 μM are marked with “+++.”)
Cn1ccnc1-c1ccncc1NC(=O)c1c(N)nn2cc(F)cnc12 [I-C-55, 2-amino-6-fluoro-N-(4-(1-methyl-1H-imidazol-2-yl)pyridin-3-yl)pyrazolo[1,5-a]pyrimidine-3-carboxamide] | + (Compounds with a Cisplatin sensitization value >0.2 μM but <5 μM are marked with “+.”)
Cn1cncc1-c1ccncc1NC(=O)c1c(N)nn2cc(F)cnc12 [I-C-56, 2-amino-6-fluoro-N-(4-(1-methyl-1H-imidazol-5-yl)pyridin-3-yl)pyrazolo[1,5-a]pyrimidine-3-carboxamide] | +++ (Compounds with a Cisplatin sensitization value of <0.02 μM are marked with “+++.”)
Cn1nccc1-c1ccncc1NC(=O)c1c(N)nn2cc(F)cnc12 [I-C-57, 2-amino-6-fluoro-N-(4-(1-methyl-1H-pyrazol-5-yl)pyridin-3-yl)pyrazolo[1,5-a]pyrimidine-3-carboxamide] | +++ (Compounds with a Cisplatin sensitization value of <0.02 μM are marked with “+++.”)
Cn1c(-c2ccncc2NC(=O)c2c(N)nn3cc(F)cnc23)cccc1=O [I-C-58, 2-amino-6-fluoro-N-(1-methyl-6-oxo-1,6-dihydro-[2,4′-bipyridin]-3′-yl)pyrazolo[1,5-a]pyrimidine-3-carboxamide] | +++ (Compounds with a Cisplatin sensitization value of <0.02 μM are marked with “+++.”)
Cn1cc(-c2ccncc2NC(=O)c2c(N)nn3cc(F)cnc23)ccc1=O [I-C-59, 2-amino-6-fluoro-N-(1-methyl-6-oxo-1,6-dihydro-[3,4′-bipyridin]-3′-yl)pyrazolo[1,5-a]pyrimidine-3-carboxamide] | ++ (Compounds with a Cisplatin sensitization value >0.02 μM but <0.2 μM are marked with “++.”)
Nc1nn2cc(F)cnc2c1C(=O)Nc1cnccc1-c1ccccn1 [I-C-60, N-([2,4′-bipyridin]-3′-yl)-2-amino-6-fluoropyrazolo[1,5-a]pyrimidine-3-carboxamide] | ++ (Compounds with a Cisplatin sensitization value >0.02 μM but <0.2 μM are marked with “++.”)
CS(=O)(=O)c1ccc(-c2ccncc2NC(=O)c2c(N)nn3cc(F)cnc23)cc1 [I-C-61, 2-amino-6-fluoro-N-(4-(4-(methylsulfonyl)phenyl)pyridin-3-yl)pyrazolo[1,5-a]pyrimidine-3-carboxamide] | +++ (Compounds with a Cisplatin sensitization value of <0.02 μM are marked with “+++.”)
Cc1nccnc1-c1ccncc1NC(=O)c1c(N)nn2cc(F)cnc12 [I-C-62, 2-amino-6-fluoro-N-(4-(3-methylpyrazin-2-yl)pyridin-3-yl)pyrazolo[1,5-a]pyrimidine-3-carboxamide] | ++ (Compounds with a Cisplatin sensitization value >0.02 μM but <0.2 μM are marked with “++.”)
Cc1nn(C)cc1-c1ccncc1NC(=O)c1c(N)nn2cc(F)cnc12 [I-C-63, 2-amino-N-(4-(1,3-dimethyl-1H-pyrazol-4-yl)pyridin-3-yl)-6-fluoropyrazolo[1,5-a]pyrimidine-3-carboxamide] | +++ (Compounds with a Cisplatin sensitization value of <0.02 μM are marked with “+++.”)
Nc1nn2cc(F)cnc2c1C(=O)Nc1cnccc1-c1ccc(S(=O)(=O)N2CCC2)cc1 [I-C-64, 2-amino-N-(4-(4-(azetidin-1-ylsulfonyl)phenyl)pyridin-3-yl)-6-fluoropyrazolo[1,5-a]pyrimidine-3-carboxamide] | +++ (Compounds with a Cisplatin sensitization value of <0.02 μM are marked with “+++.”)
Cn1ncnc1-c1ccncc1NC(=O)c1c(N)nn2cc(F)cnc12 [I-C-65, 2-amino-6-fluoro-N-(4-(1-methyl-1H-1,2,4-triazol-5-yl)pyridin-3-yl)pyrazolo[1,5-a]pyrimidine-3-carboxamide] | ++ (Compounds with a Cisplatin sensitization value >0.02 μM but <0.2 μM are marked with “++.”)
CN1CCOC[C@@H]1c1ccc(-c2ccncc2NC(=O)c2c(N)nn3cc(F)cnc23)cc1 [I-C-66, (S)-2-amino-6-fluoro-N-(4-(4-(4-methylmorpholin-3-yl)phenyl)pyridin-3-yl)pyrazolo[1,5-a]pyrimidine-3-carboxamide] | +++ (Compounds with a Cisplatin sensitization value of <0.02 μM are marked with “+++.”)
Cc1cncnc1-c1ccncc1NC(=O)c1c(N)nn2cc(F)cnc12 [I-C-67, 2-amino-6-fluoro-N-(4-(5-methylpyrimidin-4-yl)pyridin-3-yl)pyrazolo[1,5-a]pyrimidine-3-carboxamide] | ++ (Compounds with a Cisplatin sensitization value >0.02 μM but <0.2 μM are marked with “++.”)
Cn1ccc(-c2ccncc2NC(=O)c2c(N)nn3cc(F)cnc23)n1 [I-C-68, 2-amino-6-fluoro-N-(4-(1-methyl-1H-pyrazol-3-yl)pyridin-3-yl)pyrazolo[1,5-a]pyrimidine-3-carboxamide] | + (Compounds with a Cisplatin sensitization value >0.2 μM but <5 μM are marked with “+.”)
CC(=O)N1CCC(c2ccncc2NC(=O)c2c(N)nn3cc(F)cnc23)CC1 [I-C-69, N-(4-(1-acetylpiperidin-4-yl)pyridin-3-yl)-2-amino-6-fluoropyrazolo[1,5-a]pyrimidine-3-carboxamide] | +++ (Compounds with a Cisplatin sensitization value of <0.02 μM are marked with “+++.”)
Nc1nn2cc(F)cnc2c1C(=O)Nc1cnccc1C1CCN(C(=O)C2CC2)CC1 [I-C-70, 2-amino-N-(4-(1-(cyclopropanecarbonyl)piperidin-4-yl)pyridin-3-yl)-6-fluoropyrazolo[1,5-a]pyrimidine-3-carboxamide] | +++ (Compounds with a Cisplatin sensitization value of <0.02 μM are marked with “+++.”)
N#CC1(C(=O)N2CCC(c3ccncc3NC(=O)c3c(N)nn4cc(F)cnc34)CC2)CC1 [I-C-71, 2-amino-N-(4-(1-(1-cyanocyclopropanecarbonyl)piperidin-4-yl)pyridin-3-yl)-6-fluoropyrazolo[1,5-a]pyrimidine-3-carboxamide] | +++ (Compounds with a Cisplatin sensitization value of <0.02 μM are marked with “+++.”)
Cn1nncc1-c1ccncc1NC(=O)c1c(N)nn2cc(F)cnc12 [I-C-72, 2-amino-6-fluoro-N-(4-(1-methyl-1H-1,2,3-triazol-5-yl)pyridin-3-yl)pyrazolo[1,5-a]pyrimidine-3-carboxamide] | +++ (Compounds with a Cisplatin sensitization value of <0.02 μM are marked with “+++.”)
CN1CCC(c2ccncc2NC(=O)c2c(N)nn3cc(F)cnc23)CC1=O (stereo not drawn) [I-C-73, 2-amino-6-fluoro-N-(4-(1-methyl-2-oxopiperidin-4-yl)pyridin-3-yl)pyrazolo[1,5-a]pyrimidine-3-carboxamide] | ++ (Compounds with a Cisplatin sensitization value >0.02 μM but <0.2 μM are marked with “++.”)
Cn1ccc2c(NC(=O)c3c(N)nn4cc(F)cnc34)cncc21 [I-C-74, 2-amino-6-fluoro-N-(1-methyl-1H-pyrrolo[2,3-c]pyridin-4-yl)pyrazolo[1,5-a]pyrimidine-3-carboxamide] | + (Compounds with a Cisplatin sensitization value >0.2 μM but <5 μM are marked with “+.”)
Nc1nn2cc(F)cnc2c1C(=O)Nc1cnccc1C1CCOC1 (stereo not drawn) [I-C-75, 2-amino-6-fluoro-N-(4-(tetrahydrofuran-3-yl)pyridin-3-yl)pyrazolo[1,5-a]pyrimidine-3-carboxamide] | ++ (Compounds with a Cisplatin sensitization value >0.02 μM but <0.2 μM are marked with “++.”)
Nc1nn2cc(F)cnc2c1C(=O)Nc1cnccc1CN1CCCC1=O [I-C-76, 2-amino-6-fluoro-N-(4-((2-oxopyrrolidin-1-yl)methyl)pyridin-3-yl)pyrazolo[1,5-a]pyrimidine-3-carboxamide] | + (Compounds with a Cisplatin sensitization value >0.2 μM but <5 μM are marked with “+.”)
Cc1ncc(-c2ccncc2NC(=O)c2c(N)nn3cc(F)cnc23)n1C [I-C-77, 2-amino-N-(4-(1,2-dimethyl-1H-imidazol-5-yl)pyridin-3-yl)-6-fluoropyrazolo[1,5-a]pyrimidine-3-carboxamide] | +++ (Compounds with a Cisplatin sensitization value of <0.02 μM are marked with “+++.”)
Cc1ncn(C)c1-c1ccncc1NC(=O)c1c(N)nn2cc(F)cnc12 [I-C-78, 2-amino-N-(4-(1,4-dimethyl-1H-imidazol-5-yl)pyridin-3-yl)-6-fluoropyrazolo[1,5-a]pyrimidine-3-carboxamide] | ++ (Compounds with a Cisplatin sensitization value >0.02 μM but <0.2 μM are marked with “++.”)
